{
  "source": "paper PMC9503459",
  "about": "“Antifungal Activity, Structural Stability, and Immunomodulatory Effects on Human Immune Cells of Defensin from the Lentil Lens culinaris” (Membranes, 2022)",
  "tested_on": "CD8+ T cytotoxic cells",
  "test": "Cytokine response by multiplex xMAP, CD8+ T cytotoxic cells",
  "format": "cell-based, human",
  "settings": "2 µM, 24 h",
  "description": "Colorectal adenocarcinoma Caco-2 cell line (ATCC HTB-37) was cultured in complete DMEM/F12 (1:1) medium containing 10% fetal bovine serum (FBS, Gibco) and 1X antibiotic-antimycotic solution (1XAAS, Invitrogen, Waltham, MA, USA). The acute monocytic leukemia THP-1 line (ATCC TIB-202) was cultured in complete RPMI-1640 medium, containing 10% FBS, 1XAAS, and […]. THP-1 cells were differentiated into pro-inflammatory macrophages (Mφ1) with phorbol 12-myristate 13-acetate (Sigma-Aldrich) for 24 h and subsequently polarized with lipopolysaccharide from E. coli (Sigma-Aldrich) and rhIFN-γ (Sigma-Aldrich) for another 48 h according to previously reported protocol. All cells were cultured in a humidified CO2 incubator (5% CO2, 37 °C). Primary peripheral blood mononuclear cells (PBMCs) collected from a healthy donor were purchased from American Type Culture Collection (ATCC PCS-800-011). CD4^+ T-helper and CD8^+ T cytotoxic cells were isolated from PBMCs by magnetic separation with mouse anti-human CD4-PE (clone 13B8.2, Beckman Coulter Diagnostics, Pasadena, CA, USA) and CD8-PE (clone REA734, Miltenyi Biotec, Bergisch Gladbach, Germany), Anti-PE MicroBeads (Miltenyi Biotec), and LS Separation Columns (Miltenyi Biotec). Isolated CD4^+ and CD8^+ cells were expanded separately with Dynabeads™ Human T-Expander CD3/CD28 (Gibco, Waltham, MA, USA) in RPMI-1640 supplemented with 10% FBS, 1XAAS and 100 U/mL rh-IL-2 (Gibco). Regulatory CD4^+ FoxP3^+ T cells (Tregs) were isolated from PBMCs by magnetic separation with CD4^+CD25^+ Regulatory T Cell Isolation Kit, human (Miltenyi Biotec). Primary CD14^+ blood monocytes were isolated from PBMCs by adherence according to standard technique. Monocyte-derived mature dendritic cells (moDCs) were obtained from CD14^+ blood monocytes according to the previously reported protocol. Briefly, blood monocytes were incubated in complete RPMI-1640 medium, containing 10% FBS, 1XAAS, 800 U/mL rhGM-CSF (Sci-Store, Russia, Moscow) and 500 U/mL rhIL-4 (Sci-Store) for 3 days. Fresh complete RPMI-1640 medium with rhGM-CSF and rhIL-4 was added to the culture on day 3. On day 5, fresh complete RPMI-1640 containing 100 U/mL rhTNF-α (Sigma) as well as 800 U/mL rhGM-CSF and 500 U/mL rhIL-4 was added and the culture was incubated for another 4 days until full maturation.\nCaco-2 cells were seeded into the wells of a 48-well plate, coated with 0.1% bovine collagen (Sigma-Aldrich) for 24 h, 3 weeks before the experiment with complete DMEM/F12 (1:1) medium renewal every 2–3 days. Monocytes, moDCs, CD4^+ T-helper and CD8^+ T cytotoxic cells, Mφ1, and Regulatory CD4^+ FoxP3^+ T cells were seeded into the wells of 48-well plates in the complete RPMI-1640 medium supplemented with 10% Human AB serum (HABS, Capricorn Scientific, Ebsdorfergrund, Germany) and 1XAAS 24 h prior to the experiment; medium in Caco-2-containing wells was also replaced with the same medium. After 24 h, half of the medium in each well was replaced by fresh complete RPMI-1640 medium with 10% HABS, supplemented with 4 µM of Lc-def for the sample wells or fresh medium alone for the control wells. Cell cultures were kept in CO2-incubator (5% CO2, 37 °C) for another 24 h. Culture supernatants were collected 24 h later and stored at −70 °C degrees less than one month prior to the analytes assessment. […]",
  "note": "No end group written: not given here.",
  "data": [
    {"substance": "Lc-def: defensin from lentil Lens culinaris seeds (UniProt:B3F051), recombinant, overexpressed in Escherichia coli (KTCENLSDSFKGPCIPDGNCNKHCKEKEHLLSGRCRDDFRCWCTRNC; disulfide (positions not given here); ends not checked; also: disulfide bonds present, pairing not given here; UniProt B3F051 28-74, looked up)", "values": [
      {"measurement": "EGF", "result": "<1.95↓ pg/ml"},
      {"measurement": "Eotaxin", "result": "<3.23↓ pg/ml"},
      {"measurement": "FGF-2", "result": 0, "unit": "pg/mL"},
      {"measurement": "FLT-3L", "result": "<0.45↓ pg/ml"},
      {"measurement": "Fractalkine", "result": "<23.19↓ pg/ml"},
      {"measurement": "G-CSF", "result": "<2.57↓ pg/ml"},
      {"measurement": "GM-CSF", "result": "<1.36↓ pg/ml"},
      {"measurement": "GROa", "result": "<0.67↓ pg/ml"},
      {"measurement": "IFNa2", "result": "<4.43↓ pg/ml"},
      {"measurement": "IFNg", "result": "<1.99↓ pg/ml"},
      {"measurement": "IL-1RA", "result": "<0.83↓ pg/ml"},
      {"measurement": "IL-1a", "result": 9, "unit": "pg/mL"},
      {"measurement": "IL-1b", "result": "<18.72↓ pg/ml"},
      {"measurement": "IL-2", "result": "<0.31↓ pg/ml"},
      {"measurement": "IL-3", "result": "<0.48↓ pg/ml"},
      {"measurement": "IL-4", "result": "<0.31↓ pg/ml"},
      {"measurement": "IL-5", "result": 9.01, "unit": "pg/mL"},
      {"measurement": "IL-6", "result": "<0.30↓ pg/ml"},
      {"measurement": "IL-7", "result": "<0.33↓ pg/ml"},
      {"measurement": "IL-8", "result": "<0.49↓ pg/ml"},
      {"measurement": "IL-9", "result": "<1.05↓ pg/ml"},
      {"measurement": "IL-10", "result": "<0.68↓ pg/ml"},
      {"measurement": "IL-12 (p40)", "result": "<3.02↓ pg/ml"},
      {"measurement": "IL-12 (p70)", "result": "<1.48↓ pg/ml"},
      {"measurement": "IL-13", "result": "<5.00↓ pg/ml"},
      {"measurement": "IL-15", "result": "<1.45↓ pg/ml"},
      {"measurement": "IL-17A", "result": "<1.55↓ pg/ml"},
      {"measurement": "IL-17E/IL-25", "result": "<20.59↓ pg/ml"},
      {"measurement": "IL-17F", "result": "<16.96↓ pg/ml"},
      {"measurement": "IL-18", "result": "<0.35↓ pg/ml"},
      {"measurement": "IL-22", "result": "<8.31↓ pg/ml"},
      {"measurement": "IL-27", "result": "<8.55↓ pg/ml"},
      {"measurement": "IP-10", "result": "<1.56↓ pg/ml"},
      {"measurement": "M-GSF", "result": "<23.75↓ pg/ml"},
      {"measurement": "MCP-1", "result": "<1.52↓ pg/ml"},
      {"measurement": "MCP-3", "result": "<3.95↓ pg/ml"},
      {"measurement": "MDC", "result": "<0.35↓ pg/ml"},
      {"measurement": "MIG", "result": "<3.43↓ pg/ml"},
      {"measurement": "MIP-1a", "result": "<1.76↓ pg/ml"},
      {"measurement": "MIP-1b", "result": "<1.92↓ pg/ml"},
      {"measurement": "PDGF-AA", "result": "<7.38↓ pg/ml"},
      {"measurement": "PDGF-AB/BB", "result": "<9.75↓ pg/ml"},
      {"measurement": "RANTES", "result": 366.74, "unit": "pg/mL"},
      {"measurement": "TGF-a", "result": "<0.66↓ pg/ml"},
      {"measurement": "TNFa", "result": "<3.91↓ pg/ml"},
      {"measurement": "TNFb", "result": "<0.73↓ pg/ml"},
      {"measurement": "VEGFa", "result": "<1.27↓ pg/ml"},
      {"measurement": "effects on cytokine production", "result": "No effects"},
      {"measurement": "sCD40L", "result": "<6.66↓ pg/ml"}
    ]}
  ]
}
